According to patent US20020064847A1, “NOVEL SECONDARY ALCOHOL DEHYDROGENASE, PROCESS FOR PREPARING SAID ENZYME, AND PROCESS FOR PREPARING ALCOHOLS AND KETONES USING SAID ENZYME” (priority 1996, published 2002):
“Also recorded” adds a separate entry of the source. Like-named read-outs stand apart in the source and are kept apart here.

Legend:
[1] = tested on: secondary alcohol dehydrogenase; assay: Substrate specificity, oxidation reaction; assay type: biochemical, Geotrichum candidum IFO 4601; details: coenzyme NAD+, (S)-1,3-butanediol-oxidizing activity = 100
Protocol: (§1) In the present invention, secondary alcohol dehydrogenase activity was determined by allowing the enzyme to react in the reaction mixture containing potassium phosphate buffer (pH 8.0, 50 μmol), 2.5 μmol NAD^+, and 50μmol (S)-1,3-butanediol at 30° C. and measuring an increase of absorbance at 340 nm resulting from generation of NADH. One unit was defined as the amount of enzyme catalyzing generation of 1μmol of NADH per minute.
(§2) The secondary alcohol dehydrogenase was reacted with various alcohols and aldehydes. Its oxidation and reduction activities are shown in Table 1 as relative activities to (S)-1,3-butanediol-oxidizing activity and 4-hydroxy-2-butanone-reducing activity that are taken as 100.

[2] = tested on: secondary alcohol dehydrogenase; assay: Behavior of the secondary alcohol dehydrogenase to inhibitors (residual activity); assay type: biochemical, Geotrichum candidum IFO 4601; details: for Residual activity: 30° C. for 10 minutes
Protocol: as §1
The secondary alcohol dehydrogenase was treated with various reagents at 30° C. for 10 minutes.

[3] = tested on: secondary alcohol dehydrogenase; assay: Substrate specificity, reduction reaction; assay type: biochemical, Geotrichum candidum IFO 4601; details: 4-hydroxy-2-butanone-reducing activity = 100
Protocol: The secondary alcohol dehydrogenase was examined for its activity of oxidation of (S)-1,3-butanediol and that of reduction of 4-hydroxy-2-butanone [which was measured under the same conditions as those used for measuring activity of oxidation of (S)-1,3-butanediol except for using NADH (0.4 μmol) instead of NAD^+] at different pHs using potassium-phosphate buffer (KPB), Tris-HCl buffer and Britten-Robinson buffer by measuring the decrease of absorbance at 340 nm accompanied with reduction of the amount of NADH. The activity is shown in FIGS. 3 and 4 as relative activity with taking the maximal activity as 100. The optimum pH in the reaction was 8.0-9.0 in the case of the oxidation of (S)-1,3-butanediol (FIG. 3) and 7.0 in the case of the reduction of 4-hydroxy-2-butanone (FIG. 4).
as §2

[4] = tested on: secondary alcohol dehydrogenase; assay: Enzyme kinetic analysis; assay type: biochemical, Geotrichum candidum IFO 4601
Protocol: as §1
The reaction rate constants of the purified secondary alcohol dehydrogenase to the following substrates were measured.

[5] = tested on: secondary alcohol dehydrogenase; assay: Substrate specificity, oxidation reaction; assay type: biochemical, Geotrichum candidum IFO 4601; details: substrate 50 mM, coenzyme NADP+, (S)-1,3-butanediol-oxidizing activity = 100
[6] = biological target: primary alcohol dehydrogenase (SADH 1) (Saccharomyces cerevisiae, UniProt P00330); details: SADH 1 from Saccharomyces cerevisiae; cited from earlier work
Sequence of primary alcohol dehydrogenase (SADH 1) (P00330 whole entry): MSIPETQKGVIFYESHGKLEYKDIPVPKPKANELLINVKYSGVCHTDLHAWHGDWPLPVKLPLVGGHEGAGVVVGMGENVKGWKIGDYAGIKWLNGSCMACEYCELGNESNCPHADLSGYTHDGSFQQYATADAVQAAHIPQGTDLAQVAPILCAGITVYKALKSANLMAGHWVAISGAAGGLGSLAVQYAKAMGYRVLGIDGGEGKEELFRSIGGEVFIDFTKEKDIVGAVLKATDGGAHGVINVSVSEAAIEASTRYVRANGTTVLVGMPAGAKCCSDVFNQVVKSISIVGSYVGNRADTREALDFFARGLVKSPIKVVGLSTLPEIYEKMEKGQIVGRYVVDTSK

[7] = substrate 100 mM, coenzyme NADH

Q: For 1-butanol, which Relative activity ([1]; substrate 100 mM) is on record?
A: 12.9%

Q: With 1-propanol as the compound, how does the Relative activity ([1]; substrate 100 mM) read?
A: 15.5%

Q: Which Residual activity ([2]; inhibitor 1.0 mM) does the source give for `O[C@H](CS)[C@H](O)CS` (racemic) [dithiothreitol] here?
A: 42.9%

Q: With `CCC(C)=O` [2-butanone] as the compound, how does the Relative activity [3, 7] read?
A: 20.2%

Q: Which “Inhibition of the enzyme (in words)” value [2] does the source give for `OCCS` [2-mercaptoethanol] here?
A: markedly inhibited

Q: And the Residual activity ([2]; inhibitor 0.01 mM)?
A: 6.8%

Q: What about the “Inhibition of the enzyme (in words)” value ([2]; listed as 2-mercaptethanol) of the same compound?
A: inhibited

Q: With `CC(C)O` [2-propanol] as the compound, how does the Relative activity ([1]; substrate 100 mM) read?
A: 96.8%

Q: Which results are given for `CC(=O)CCO` [4-hydroxy-2-butanone]?
A: Relative activity ([3]; substrate 20 mM, coenzyme NADH): 100%; Relative activity ([3]; substrate 20 mM, coenzyme NADPH): 0%

Q: For `C[C@@H](O)CO` [(R)-1,2-propanediol], which Relative activity ([1]; substrate 50 mM) is on record?
A: 10.4%

Q: Which E value ([4]; (S)- versus (R)-1,3-butanediol) does the source give for `C[C@@H](O)CCO` [(R)-1,3-butanediol] here?
A: 33.0

Q: What about the Vmax ([4]; purified enzyme) of the same compound?
A: 4.43 U/mg of protein

Q: What about the Relative activity [5] of the same compound?
A: 8.8%

Q: For `C[C@@H](O)c1ccccc1` [(R)-1-phenylethanol], which Relative activity ([1]; substrate 50 mM) is on record?
A: 19.2%

Q: With `CCCCCC[C@@H](C)O` [(R)-2-octanol] as the compound, how does the Relative activity ([1]; substrate 5 mM) read?
A: 13.3%

Q: With `C[C@H](O)CO` [(S)-1,2-propanediol] as the compound, how does the Relative activity ([1]; substrate 50 mM) read?
A: 23.8%

Q: Which results are given for `C[C@H](O)CCO` [(S)-1,3-butanediol]?
A: Relative activity ([1]; substrate 50 mM): 100%; Km ([4]; purified enzyme): 41.4 mM; Vmax ([4]; purified enzyme): 36.7 U/mg of protein; Relative activity [5]: 2.4%

Q: With `C[C@H](O)c1ccccc1` [(S)-1-phenylethanol] as the compound, how does the Relative activity ([1]; substrate 50 mM) read?
A: 267%

Q: With `CCCCCC[C@H](C)O` [(S)-2-octanol] as the compound, how does the Relative activity ([1]; substrate 5 mM) read?
A: 187%

Q: Which Relative activity [3, 7] does the source give for `CC(C)=O` [acetone] here?
A: 164%

Q: Which Relative activity ([3]; substrate 20 mM, coenzyme NADH) does the source give for `CC(=O)c1ccccc1` [acetophenone] here?
A: 122%

Q: Which Relative activity ([1]; substrate 100 mM) does the source give for `C=CCO` [allyl alcohol] here?
A: 18.7%

Q: Which Residual activity ([2]; inhibitor 1.0 mM) does the source give for `[Cl][Co][Cl]` [cobalt chloride] here?
A: 81.0%

Q: Which Residual activity ([2]; inhibitor 1.0 mM) does the source give for `O=S(=O)([O-])[O-].[Cu+2]` [copper sulfate] here?
A: 71.5%

Q: Which Relative activity ([1]; substrate 20 mM) does the source give for `OC1CCCCC1` [cyclohexanol] here?
A: 90.4%

Q: Which Relative activity ([1]; substrate 100 mM) does the source give for `CCO` [ethanol] here?
A: 10.7%

Q: With `CCOC(=O)CC(C)=O` [ethyl acetoacetate] as the compound, how does the Relative activity [3, 7] read?
A: 96.8%

Q: Which “Inhibition of the enzyme (in words)” value [2] does the source give for `O=C(O)CN(CCN(CC(=O)O)CC(=O)O)CC(=O)O` [ethylenediaminetetraacetic acid] here?
A: inhibited

Q: And the Residual activity ([2]; inhibitor 1.0 mM)?
A: 63.5%

Q: And the Residual activity ([2]; inhibitor 10 mM)?
A: 9.8%

Q: Which Relative activity ([1]; substrate 50 mM) does the source give for `OCC(O)CO` [glycerol] here?
A: 0%

Q: With `NC(=O)CI` [iodoacetamide] as the compound, how does the “Inhibition of the enzyme (in words)” value [2] read?
A: perfectly inhibited; also recorded: markedly inhibited

Q: And the Residual activity ([2]; inhibitor 1.0 mM)?
A: 2.4%

Q: With `[Cl][Hg][Cl]` [mercuric chloride] as the compound, how does the “Inhibition of the enzyme (in words)” value [2] read?
A: markedly inhibited

Q: What about the Residual activity ([2]; inhibitor 1.0 mM) of the same compound?
A: 0.0%

Q: What about the “Inhibition of the enzyme (in words)” value ([2]; listed as mercury chloride) of the same compound?
A: inhibited

Q: For `CO` [methanol], which Relative activity ([1]; substrate 100 mM) is on record?
A: 60.8%

Q: With `COC(=O)C[C@@H](C)O` [methyl (R)-3-hydroxybutyrate] as the compound, how does the Relative activity ([1]; substrate 50 mM) read?
A: 22.1%

Q: With `COC(=O)C[C@H](C)O` [methyl (S)-3-hydroxybutyrate] as the compound, how does the Relative activity ([1]; substrate 50 mM) read?
A: 138%

Q: Which “Inhibition of the enzyme (in words)” value [2] does the source give for `O=C(O)c1cc[c]([Hg][Cl])cc1` [p-chloromercuribenzoic acid] here?
A: perfectly inhibited

Q: And the Residual activity ([2]; inhibitor 0.05 mM)?
A: 0.0%

Q: What about the “Inhibition of the enzyme (in words)” value ([2]; listed as parachloromercuribenzoic acid) of the same compound?
A: markedly inhibited

Q: For `[Cl-].[Cl-].[Zn+2]` [zinc chloride], which “Inhibition of the enzyme (in words)” value [2] is on record?
A: markedly inhibited

Q: What about the Residual activity ([2]; inhibitor 10 mM) of the same compound?
A: 0.9%

Q: For (R)-2-butanol, which Relative activity ([1]; substrate 50 mM) is on record?
A: 60.0%

Q: Which results are given for (RS)-2-butanol?
A: Relative activity ([1]; substrate 100 mM): 85.9%; Activity relative to ethanol [6]: approximately 1%

Q: With (S)-2-butanol as the compound, how does the Relative activity ([1]; substrate 50 mM) read?
A: 112%
